US11427549B2, “Pyrimidinyloxy benzo-fused compounds as herbicides” (FMC Corporation, priority 2017, dated 2022)

Columns and labels:
Format in all cases: in vivo
[1] = tested on: foxtail, green (green foxtail, Setaria viridis); experiment: Test A preemergence, foxtail, green; settings: Setaria, pre-emergence, 240 h, 0 to 100 scale (0 no effect, 100 complete control), read-out: Plant response rating, Foxtail, Green; for pest or weed control at 31 g/ha: 31 g ai/ha; for pest or weed control at 125 g/ha: 125 g ai/ha; for pest or weed control at 500 g/ha: 500 g ai/ha
Description: (§1) Seeds of plant species selected from barnyardgrass (Echinochloa crus-galli), kochia (Kochia scoparia), ragweed (common ragweed, Ambrosia elatior), ryegrass, Italian (Italian ryegrass, Lolium multiflorum), foxtail, giant (giant foxtail, Setaria faberii), foxtail, green (green foxtail, Setaria viridis) and pigweed (Amaranthus retroflexus) were planted into a blend of loam soil and sand and treated preemergence with a directed soil spray using test chemicals formulated in a non-phytotoxic solvent mixture which included a surfactant.
(§2) At the same time, plants selected from these weed species and also wheat (Triticum aestivum), corn (Zea mays), blackgrass (Alopecurus myosuroides), and galium (catchweed bedstraw, Galium aparine) were planted in pots containing the same blend of loam soil and sand and treated with postemergence applications of test chemicals formulated in the same manner. Plants ranged in height from 2 to 10 cm and were in the one- to two-leaf stage for the postemergence treatment. Treated plants and untreated controls were maintained in a greenhouse for approximately 10 days, after which time all treated plants were compared to untreated controls and visually evaluated for injury. […] A dash (-) response means no test result.

[2] = tested on: foxtail, giant (giant foxtail, Setaria faberii); experiment: Test A postemergence, foxtail, giant; settings: Setaria faberi, post-emergence, 240 h, 0 to 100 scale (0 no effect, 100 complete control), read-out: Plant response rating, Foxtail, Giant; for pest or weed control at 31 g/ha: 31 g ai/ha; for pest or weed control at 125 g/ha: 125 g ai/ha
Description: as §1, §2

[3] = tested on: foxtail, giant (giant foxtail, Setaria faberii); experiment: Test A preemergence, foxtail, giant; settings: Setaria faberi, pre-emergence, 240 h, 0 to 100 scale (0 no effect, 100 complete control), read-out: Plant response rating, Foxtail, Giant; for pest or weed control at 31 g/ha: 31 g ai/ha; for pest or weed control at 125 g/ha: 125 g ai/ha
Description: as §1, §2

SMILES | pest or weed control at 31 g/ha [1] [%] | pest or weed control at 125 g/ha [1] [%] | other results
O=C1CC(CCC(F)(F)F)c2c(Oc3ncc(Cl)cn3)cccc21 (stereo not drawn) [Compound 11, 4-[(5-Chloro-2-pyrimidinyl)oxy]-2,3-dihydro-3-(3,3,3-trifluoropropyl)-1H-inden-1-one] | 10 | 70 | –
FC(F)(F)CCCC1OCc2cccc(Oc3ncc(Cl)cn3)c21 (stereo not drawn) [Compound 7, 5-chloro-2-[[1,3-dihydro-3-(4,4,4-trifluorobutyl)-4-isobenzofuranyl]oxy]-pyrimidine] | 80 | 100 | –
FC(F)(F)CCCC1CCc2cccc(Oc3ncc(Cl)cn3)c21 (stereo not drawn) [Compound 9, 5-Chloro-2-[[2,3-dihydro-3-(4,4,4-trifluorobutyl)-1H-inden-4-yl]oxy]pyrimidine] | 70 | 100 | –
O=C1NC(CCCC(F)(F)F)c2c(Oc3ncc(Cl)cn3)cccc21 (stereo not drawn) [Compound 13, 4-[(5-Chloro-2-pyrimidinyl)oxy]-2,3-dihydro-3-(4,4,4-trifluorobutyl)-1H-isoindol-1-one] | 0 | 0 | –
CN1C(=O)c2cccc(Oc3ncc(Cl)cn3)c2C1CCCC(F)(F)F (stereo not drawn) [Compound 12, 4-[(5-Chloro-2-pyrimidinyl)oxy]-2,3-dihydro-2-methyl-3-(4,4,4-trifluorobutyl)-1H-isoindol-1-one] | 0 | 0 | –
FC(F)(F)CCC1OCc2cccc(Oc3ncc(Cl)cn3)c21 (stereo not drawn) [Compound 8, 5-Chloro-2-[[1,3-dihydro-3-(3,3,3-trifluoropropyl)-4-isobenzofuranyl]oxy]pyrimidine] | 80 | 100 | –
OC1(CCC(F)(F)F)CCc2cccc(Oc3ncc(Cl)cn3)c21 (stereo not drawn) [Compound 14, 7-[(5-Chloro-2-pyrimidinyl)oxy]-2,3-dihydro-1-(3,3,3-trifluoropropyl)-1H-inden-1-ol] | – | 40 | pest or weed control at 500 g/ha [1]: 100%
O=C1O[C@@H](CCCC(F)(F)F)c2c(Oc3ncc(Cl)cn3)cccc21 [Compound 2, (3S)-4-[(5-Chloro-2-pyrimidinyl)oxy]-3-(4,4,4-trifluorobutyl)-1-(3H)-isobenzofuranone] | 0 | 30 | –
O=C1OC(CCCC(F)(F)F)c2c(Oc3ncc(Cl)cn3)cccc21 (stereo not drawn) [Compound 1, 4-[(5-Chloro-2-pyrimidinyl)oxy]-3-(4,4,4-trifluorobutyl)-1(3H)-isobenzofuranone] | – | 100 | pest or weed control at 500 g/ha [1]: 100%
O=C1O[C@H](CCCC(F)(F)F)c2c(Oc3ncc(Cl)cn3)cccc21 [Compound 3, (3R)-4-[(5-Chloro-2-pyrimidinyl)oxy]-3-(4,4,4-trifluorobutyl)-1-(3H)-isobenzofuranone] | 100 | 100 | –
OC1CC(CCCC(F)(F)F)c2c(Oc3ncc(Cl)cn3)cccc21 (stereo not drawn) [Compound 10, 4-[(5-Chloro-2-pyrimidinyl)oxy]-2,3-dihydro-3-(4,4,4-trifluorobutyl)-1H-inden-1-ol] | 60 | 90 | –
O=C1OCc2cccc(Oc3ncc(Cl)cn3)c2C1CCC(F)(F)F (stereo not drawn) [Compound 29, 5-[(5-Chloro-2-pyrimidinyl)oxy]-1,4-dihydro-4-(3,3,3-trifluoropropyl)-3H-2-benzopyran-3-one] | – | – | pest or weed control at 31 g/ha [2]: 0%; pest or weed control at 125 g/ha [2]: 10%; pest or weed control at 31 g/ha [3]: 0%; pest or weed control at 125 g/ha [3]: 20%
O=C1OCc2cccc(Oc3ncc(Cl)cn3)c2C1CCCCC(F)(F)F (stereo not drawn) [Compound 34, 5-[(5-Chloro-2-pyrimidinyl)oxy]-1,4-dihydro-4-(5,5,5-trifluoropentyl)-3H-2-benzopyran-3-one] | – | – | pest or weed control at 31 g/ha [2]: 0%; pest or weed control at 125 g/ha [2]: 20%; pest or weed control at 31 g/ha [3]: 0%; pest or weed control at 125 g/ha [3]: 10%
